Measured values reported in the CheMixHub ionic liquid set.

Assay: xn = mol fraction of the nth substance listed

CCCC[n+]1ccn(C)c1.F[B-](F)(F)F + Cc1ccccc1
viscosity [mPa·s], 101 kPa
Conditions | x2 = 0.05 | x2 = 0.1 | x2 = 0.2 | x2 = 0.3 | x2 = 0.33
298.15 K | 80.4 | 74.5 | 59.9 | 47.9 | 44.8
300.65 K | 54.8 | 50.7 | 39.3 | 29.3 | 27.8
303.15 K | 41.3 | 38.1 | 29.2 | 21.6 | 20.46
305.65 K | 33.3 | 30.6 | 23.5 | 17.49 | 16.56
308.15 K | 28 | 25.7 | 19.89 | 15 | 14.18
310.65 K | 24.4 | 22.36 | 17.41 | 13.35 | 12.59
313.15 K | 21.75 | 19.9 | 15.63 | 12.18 | 11.46
315.65 K | 19.74 | 18.04 | 14.3 | 11.31 | 10.62
318.15 K | 18.18 | 16.59 | 13.26 | 10.64 | 9.97
320.65 K | 16.93 | 15.43 | 12.44 | 10.11 | 9.46
323.15 K | 15.91 | 14.49 | 11.76 | 9.68 | 9.05
325.65 K | 15.07 | 13.71 | 11.21 | 9.32 | 8.7
328.15 K | 14.36 | 13.05 | 10.74 | 9.02 | 8.41
330.65 K | 13.75 | 12.48 | 10.35 | 8.77 | 8.17
333.15 K | 13.23 | 12 | 10 | 8.55 | 7.96
335.65 K | 12.77 | 11.58 | 9.7 | 8.36 | 7.77
338.15 K | 12.37 | 11.21 | 9.44 | 8.19 | 7.61

CCCC[n+]1ccn(C)c1.F[B-](F)(F)F + ClC(Cl)Cl
298.15 K, 101 kPa, x2 = 0
Conditions | electrical conductivity [S/m] | viscosity [mPa·s]
– | 0.194 | 116

CCCC[n+]1ccn(C)c1.F[B-](F)(F)F + ClCCl
298.15 K, 101 kPa, x2 = 0
Conditions | electrical conductivity [S/m] | viscosity [mPa·s]
– | 0.194 | 116

CCCC[n+]1ccn(C)c1.F[B-](F)(F)F + NC(N)=O + O
Conditions | viscosity [mPa·s]
298.15 K, 100 kPa, x2 = 0, x3 = 0.9487 | 1.99

CCCC[n+]1ccn(C)c1.F[B-](F)(F)F + NC=O
101 kPa, x1 = 1
Conditions | viscosity [mPa·s]
308.15 K | 58.4
318.15 K | 38.7

O + NCC(=O)O + CCCCCCCCCCCCCCCC[n+]1ccccc1.[Cl-]
Conditions | electrical conductivity [S/m]
308.15 K, 101 kPa, x2 = 0, x3 = 0 | 6.7e-05

CC(=O)[O-].CCCC[n+]1ccn(C)c1 + NCCCNCCCN + O
viscosity [mPa·s], 101 kPa
Conditions | 298.15 K | 303.15 K | 308.15 K | 313.15 K | 318.15 K | 323.15 K | 328.15 K | 333.15 K
x1 = 0.03479, x2 = 0 | 2.23 | 2.18 | 2.16 | 2.13 | 1.74 | 1.58 | 1.51 | 1.24
x1 = 0.03897, x2 = 0 | 2.35 | 2.29 | 2.25 | 2.22 | 2.11 | 2.07 | 1.91 | 1.86
x1 = 0.04311, x2 = 0 | 2.66 | 2.63 | 2.56 | 2.49 | 2.29 | 2.26 | 2.02 | 1.97

CC(=O)[O-].CCCC[n+]1ccn(C)c1 + NCCN1CCNCC1 + O
viscosity [mPa·s], 101 kPa
Conditions | 298.15 K | 303.15 K | 308.15 K | 313.15 K | 318.15 K | 323.15 K | 328.15 K | 333.15 K
x1 = 0.03479, x2 = 0 | 2.23 | 2.18 | 2.16 | 2.13 | 1.74 | 1.58 | 1.51 | 1.24
x1 = 0.03897, x2 = 0 | 2.35 | 2.29 | 2.25 | 2.22 | 2.11 | 2.07 | 1.91 | 1.86
x1 = 0.04311, x2 = 0 | 2.66 | 2.63 | 2.56 | 2.49 | 2.29 | 2.26 | 2.02 | 1.97

CCCC[n+]1ccn(C)c1.F[B-](F)(F)F + NCCNCCN
101.3 kPa, x1 = 1
Conditions | viscosity [mPa·s]
298.15 K | 101.1
303.15 K | 81.9
308.15 K | 63.6

CCCC[n+]1ccn(C)c1.F[B-](F)(F)F + NCCO + O
viscosity [mPa·s], 101 kPa
Conditions | 293.15 K | 298.15 K | 303.15 K | 308.15 K | 313.15 K | 318.15 K | 323.15 K | 328.15 K | 333.15 K
x1 = 0.0337, x2 = 0.2024 | 7 | 5.5 | 4.5 | 3.8 | – | – | – | – | –
x1 = 0.0792, x2 = 0.1188 | 6.1 | 4.7 | 4 | 3.4 | – | – | – | – | –
x1 = 0.0977, x2 = 0.2442 | – | – | 7.3 | 6 | 5.1 | 4.3 | 3.7 | – | –
x1 = 0.1701, x2 = 0.3402 | – | – | – | 9 | 7.6 | 6.5 | 5.5 | 4.7 | 4.1

CCCC[n+]1ccn(C)c1.F[B-](F)(F)F + N[C@@H](Cc1c[nH]cn1)C(=O)O + O
viscosity [mPa·s], 100 kPa
Conditions | 293.15 K | 298.15 K | 303.15 K | 308.15 K | 313.15 K | 318.15 K
x2 = 0, x1 = 0.0003603 | 1.03 | 0.917 | 0.835 | 0.751 | 0.693 | 0.638
x2 = 0, x1 = 0.0007203 | 1.062 | 0.951 | 0.868 | 0.789 | 0.736 | 0.681
x2 = 0, x1 = 0.00108 | 1.093 | 0.983 | 0.904 | 0.83 | 0.779 | 0.725

COCC[n+]1ccn(C)c1.O=S(=O)([N-]S(=O)(=O)C(F)(F)F)C(F)(F)F + O
101 kPa, x1 = 0.838
Conditions | electrical conductivity [S/m] | viscosity [mPa·s]
283 K | – | 66.6
298.15 K | 0.58 | –
